Results from US8779002B2, “Methods for treating a variety of diseases and conditions, and compounds useful therefor” (Salk Institute for Biological Studies, priority 2007, dated 2014).

Key:
HT22 cells = experiment: HT22 oxidative glutamate toxicity (oxytosis) assay; assay type: cell-based, mouse; conditions: Oxidative glutamate toxicity (oxytosis); read-out: HT-22 EC50
Method: FIG. 1D illustrates the results of an oxidative stress assay. HT22 cells were treated with 5 mM glutamate and different concentrations of two versions of curcumin derivatives. Cell viability was measured 24 hr later by the MTT assay (J. B. Davis and P. Maher, Protein kinase C activation inhibits glutamate-induced cytotoxicity in a neuronal cell line. Brain Res. 652 (1994) 169-173). Legend for FIG. 1A, FIG. 1B and FIG. 1D: x-x, Cmpd CNB-001, o-o, Cmpd J147.
Similar toxicity assays as described above are also conducted with invention compounds using HT22 cells in an assay for oxidative stress. After exposure with 1 mM, 2 mM, 2.5 mM, or 5 mM glutamate, cell viability is determined with the MTT assay.
HT22 hippocampal neurons are treated with 5 mM glutamate and increasing concentrations of invention compounds. Cell viability is measured 24 hr later by the MTT assay (Davis and Maher, Brain Res. 652:169-173 (1994)).

primary cortical neurons = experiment: Trophic factor withdrawal (TFW) assay; assay type: cell-based, rat; conditions: Trophic factor withdrawal assay; read-out: TFW EC50
Method: FIG. 1A illustrates the results of a trophic factor withdrawal assay. Primary cortical neurons are prepared from 18-day-old rat embryos, and cultured at low cell density 1×10^6/35 mm dish, in serum containing medium, with different compounds Viability is then assayed 2 days later using a fluorescent live-dead assay (Molecular Probes).
Primary cortical neurons can be prepared from 18-day-old embryos of Sprague-Dawley rats as described (Liu & Schubert, J. Neurochem., 1997, 69:2285-2293 and J. Neurochem., 1998, 71:2322-2329). Briefly, the cerebral cortex is dissected out under an anatomical microscope and is freed of meninges and blood vessels. The cortex is cut into small pieces and is then dissociated by trypsin digestion and passed through a pipette tip. Dissociated neurons are suspended in various media and plated on polylysine-coated 35 mm tissue culture dishes (e.g., 1×10^6 cells/dish). Several different culture conditions can be used as known in the art. Invention compounds can be added to cell culture dishes. Cell survival can be measured 1-2 days after compound administration.
A serum-containing medium can be used which includes a minimal essential medium (Sigma) containing 30 mM glucose, 2 mM glutamine, 1 mM pyruvate, penicillin (100 U/ml), streptomycin (100 μg/ml), and 10% fetal calf serum. At a plating density of 1×10^6 cells/dish, most neurons die after one week of culture in this medium. If plated at a density of 2×10^6 cells/dish, then most neurons survive. The cell density-dependent neuronal survival in this system is most likely dependent on the neurotrophic factors secreted by the neurons, not by the glia. The results are the same when glial proliferation is inhibited by cytosine arabinoside.
The structure-activity relationships of compounds according to the present invention can be determined by measuring trophic factor withdrawal in […] primary cortical neurons. As shown in FIG. 1A-FIG. 1D, compounds are added to low density primary cultures of E18 rat cortical neurons at the time of plating, and cell survival is determined two days later by a variety of methods.

MC-65 cells = experiment: MC65 intracellular amyloid toxicity assay; assay type: cell-based; conditions: Intracellular amyloid toxicity; read-out: MC65 EC50
Method: FIG. 4A illustrates the viability of MC-65 cells upon exposure to the indicated concentrations of compounds, and the degree to which synthesis of the C-terminal fragment of APP is induced by the removal of tetracycline. Cell death was determined 5 days later by the MTT assay and confirmed visually. The data are plotted as percent viable, relative to controls of drug plus un-induced cells.

Wistar rats = experiment: Novel object recognition task in rats; assay type: in vivo, rat
Method: FIG. 6 illustrates the effect of galantamine, compounds CNB-001, J147, SK186 and SKI 87 on object recognition task in Wistar rats. The data represent mean±SEM. *p<0.05 compared with the vehicle control.
This model is based on the greater spontaneous exploration of a novel object, compared with a familiar object, shown by rodents (see Ennaceur and Delacour in Behav. Brain Res. 31:47 (1988)). Male Wister rats are assessed for cognitive ability in a test apparatus comprising an open-field arena placed in a sound-attenuated room under dimmed lighting. Images of the open-field are captured by digital camera, and viewed on a monitor in an adjoining room. Each rat is subjected to the procedure separately and care is taken to remove any olfactory/taste cues by cleaning the arena and test objects with alcohol between trials and rats.
Adult male Wistar rats were employed in all rat studies. Animals were placed in the experimental rooms at postnatal day 80 and assigned unique identification numbers (tail marked). Pairs were housed in polycarbonate cages with filter tops and acclimated for 3 days prior to commencing any studies. Animals were maintained in a 12 hour light/dark cycle with room temperature maintained at 22±2° C. with a relative humidity maintained approximately 50%. Food and water were provided ad libitum.
All animals were examined, handled, and weighed for a further two days prior to initiation of the study to assure adequate health and suitability and to minimize non-specific stress associated with manipulation. Each animal was randomly assigned across the treatment groups and balanced by cage numbers. The novel object recognition experiment was performed during the animal's light cycle phase. Drug treatments were balanced across days and animals were only used once
The following compounds were used for this study—Reference compound (Galantamine; 3 mg/kg) was dissolved in 0.9% saline and administered i.p. 1 hour pre-test at a dose volume of 1 ml/kg, and all test compounds were handled in solution, and were kept at −80° C. until use. All compounds were administered orally 60 min prior to training at a volume of 1 ml/kg body weight.
Following a 5-minute habituation period, each rat was placed into the test arena in the presence of two identical objects (plastic shapes). Each rat was placed facing the same direction at the same position in the arena, and the time spent actively exploring the objects during a 5-minute test period (T1) was recorded. The rat was returned to its home cage between tests. After 24 hours, each rat was again placed in the test arena for 5 minutes (T2) in the presence of one of the familiar objects and a novel object, and the time spent exploring both objects was again recorded. The presentation order and position of the objects (left/right) was randomized between rats to prevent bias from order or place preference. A preference index for each object, the ratio of the time spent exploring either the familiar object or the novel object over the total time spent exploring both objects (during retention session T2) was used to measure cognitive function.
Data were analyzed by a one-way analysis of variance (ANOVA) followed by post-hoc comparisons with Fisher Tests when appropriate. An effect was considered significant if p<0.05. Data in the following tables are presented as the mean and standard error to the mean.

Compound	EC50 (primary cortical neurons) [nM]	EC50 (HT22 cells) [nM]	EC50 (MC-65 cells) [nM]	Recognition index, Mean (Wistar rats; 3 mg/kg i.p. 1 hour pre-test, Wistar rats, n=8)	Fisher's PLSD for Recognition index, Mean Diff. (*vehicle, treatment) (Wistar rats; vehicle versus 3 mg/kg i.p.)
COc1cccc(C=NN(C(C)=O)c2ccc(C)cc2C)c1 [Compound J147A]	> 1000	70	280	–	–
COc1ccc2c3c1O[C@H]1C[C@@H](O)C=C[C@@]31CCN(C)C2 [Galantamine, reference compound]	–	–	–	74.037	−22.114
Cc1ccc(N(N=Cc2ccccc2)C(=O)C(F)(F)F)c(C)c1 [HF 39FP]	> 1000	37	220	–	–
Cc1ccc(N(N=Cc2ccccc2)C(=O)C(F)(F)F)cc1 [HF 41FP]	> 1000	33	> 1000	–	–
COc1cccc(C=NN(C(=O)C(F)(F)F)c2ccccc2C)c1 [HF 43 FO]	> 1000	68	130	–	–
Cc1ccccc1N(N=Cc1ccccc1)C(=O)C(F)(F)F [HF 43FP]	800	50	400	–	–

Further lines, with some results ahead:

EC50 (primary cortical neurons) [nM]	Compound	EC50 (HT22 cells) [nM]	EC50 (MC-65 cells) [nM]	Recognition index, Mean (Wistar rats; 3 mg/kg i.p. 1 hour pre-test, Wistar rats, n=8)	Fisher's PLSD for Recognition index, Mean Diff. (*vehicle, treatment) (Wistar rats; vehicle versus 3 mg/kg i.p.)
70	O=C(N(N=Cc1ccccc1)c1ccccc1)C(F)(F)F [HF 38FP]	33	80	–	–
100	COc1cccc(C=NN(C(=O)C(F)(F)F)c2ccccc2)c1 [HF 40FP]	75	250	–	–
700	COc1cccc(C=NN(C(=O)C(F)(F)F)c2ccc(C)cc2)c1 [HF 42FP]	80	50	–	–
35	COc1ccc(C=NN(C(=O)C(F)(F)F)c2ccc(C)cc2C)cc1 [Sk35]	4	10	–	–
300	Cc1ccc(N(N=Cc2ccc(C(=O)O)cc2)C(=O)C(F)(F)F)c(C)c1 [Sk36]	100	300	–	–
